For assay [1], the target named is Cyclin-dependent kinase 2/cyclin E (Homo sapiens, UniProt P24941). As to the kind of experiment: Inhibitory concentration against Cyclin dependant kinase 2-cyclinE. In kind it is protein-complex assay.
The target of assay [2] is Cyclin-dependent kinase 4/cyclin D1 (Homo sapiens, UniProt P11802). As to the kind of experiment: Inhibitory concentration against Cyclin dependant kinase 4-cyclinD1. The format is protein-complex assay.
Assay [3] concerns HCT-116. As to the kind of experiment: Inhibitory concentration against human colon cancer HCT116 cell line. The format is functional, cell-based.

Structures are written as SMILES.

Sequence of Cyclin-dependent kinase 4/cyclin D1 (P11802 whole entry): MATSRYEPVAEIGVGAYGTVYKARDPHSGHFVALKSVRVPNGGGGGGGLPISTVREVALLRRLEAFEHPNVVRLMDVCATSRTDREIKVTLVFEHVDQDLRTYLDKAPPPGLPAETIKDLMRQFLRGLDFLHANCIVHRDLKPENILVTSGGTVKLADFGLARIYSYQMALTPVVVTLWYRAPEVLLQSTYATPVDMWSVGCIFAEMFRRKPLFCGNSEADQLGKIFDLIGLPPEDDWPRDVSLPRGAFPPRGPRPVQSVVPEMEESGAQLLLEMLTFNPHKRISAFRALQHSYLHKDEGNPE
Sequence of Cyclin-dependent kinase 4/cyclin D1 (P24385 whole entry, further chain): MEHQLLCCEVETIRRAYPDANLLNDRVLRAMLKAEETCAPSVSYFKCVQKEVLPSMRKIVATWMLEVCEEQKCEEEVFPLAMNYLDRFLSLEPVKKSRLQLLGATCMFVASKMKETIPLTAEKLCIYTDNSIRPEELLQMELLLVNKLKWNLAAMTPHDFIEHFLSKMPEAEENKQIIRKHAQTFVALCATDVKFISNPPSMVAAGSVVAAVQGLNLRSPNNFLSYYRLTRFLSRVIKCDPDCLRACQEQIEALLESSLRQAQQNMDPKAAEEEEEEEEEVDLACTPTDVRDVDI

For `COc1ccc(-c2[nH]nc3c2C(=O)c2c(NC(=O)NNC(=O)c4cccc([N+](=O)[O-])c4)cccc2-3)cc1`, the values for the IC50 in assay [1] and in assay [2] were 20 nM and 10 nM, respectively.
With `COc1ccc(-c2[nH]nc3c2C(=O)c2c(NC(=O)NNC(=O)c4ccccc4O)cccc2-3)cc1`, the values for the IC50 in assay [1], in assay [2] and in assay [3] were 9 nM, 60 nM and 80 nM, respectively.
Turning to `COc1ccc(-c2[nH]nc3c2C(=O)c2c(NC(=O)NNC(=O)c4cc(Cl)ccc4Cl)cccc2-3)cc1`, the IC50 – broadly, the concentration that gives 50% inhibition – in assay [1] was found to be 30 nM; in assay [2], 20 nM.
`COc1ccc(-c2[nH]nc3c2C(=O)c2c(NC(=O)NNC(=O)c4ccccc4OC)cccc2-3)cc1`: the IC50 is 10 nM in assay [1] and 40 nM in assay [3].
Consider `COc1ccc(-c2[nH]nc3c2C(=O)c2c(NC=O)cccc2-3)cc1`, for which the IC50 in assay [1] amounted to 240 nM; in assay [2] it was 400 nM.
Regarding `COc1ccc(-c2[nH]nc3c2C(=O)c2c(NC(=O)NNC(N)=O)cccc2-3)cc1`, the IC50 in assay [1] was determined as 130 nM.
For the compound `COc1ccc(-c2[nH]nc3c2C(=O)c2c(NC(=O)NNC(=O)c4ccc(C)cc4)cccc2-3)cc1`, the IC50 worked out at 20 nM in assay [1] and 140 nM in assay [3].
Regarding `COc1ccc(-c2[nH]nc3c2C(=O)c2c(NC(=O)NNC(=O)C(C)C)cccc2-3)cc1`, the half-maximal inhibitory concentration (IC50) stood at 10 nM in assay [1] and 6.5 nM in assay [2].
`COc1ccc(-c2[nH]nc3c2C(=O)c2c(NC(=O)NNC(=O)C(N)=O)cccc2-3)cc1`: the IC50 in assay [1] stood at 90 nM; in assay [2] it was 240 nM; in assay [3], 1200 nM.
Turning to `COc1ccc(-c2[nH]nc3c2C(=O)c2c(NC(=O)NNC(=O)CCc4ccc(O)cc4)cccc2-3)cc1`, the IC50 in assay [1] came to 10 nM; in assay [2] it was 9 nM.
For `COc1ccc(-c2[nH]nc3c2C(=O)c2c(NC(=O)NNC(=O)c4cc(OC)cc(OC)c4)cccc2-3)cc1`, the values for the IC50 in assay [1] and in assay [2] were 40 nM and 20 nM, respectively.
The corresponding values for `COc1ccc(-c2[nH]nc3c2C(=O)c2c(NC(=O)NNC(C)=O)cccc2-3)cc1` are 30 nM and 50 nM.
Regarding `COc1ccc(-c2[nH]nc3c2C(=O)c2c(NC(=O)NNC(=O)c4ccccc4)cccc2-3)cc1`, the IC50 was 10 nM in assay [1], 7 nM in assay [2] and 30 nM in assay [3].
Consider `COc1ccc(-c2[nH]nc3c2C(=O)c2c(NC(=O)NNC(=O)c4ccc(N)cc4)cccc2-3)cc1`, for which the results for the IC50 in assay [1], in assay [2] and in assay [3] were 10 nM, 10 nM and 70 nM, respectively.
Regarding `COc1ccc(-c2[nH]nc3c2C(=O)c2c(NC(=O)NNC(=O)c4cc(OC)c(OC)c(OC)c4)cccc2-3)cc1`, the figures for the IC50 in assay [1] and in assay [2] were 20 nM and 7 nM, respectively.
On to `COc1ccc(-c2[nH]nc3c2C(=O)c2c(NC(=O)NNC(=O)c4cccc(C)c4)cccc2-3)cc1`, for which the IC50 in assay [1] was found to be 10 nM; in assay [2], 7 nM.
With `COc1ccc(-c2[nH]nc3c2C(=O)c2c(NC(=O)NNC(=O)c4cccc5ccccc45)cccc2-3)cc1`, in assay [1], the half-maximal inhibitory concentration (IC50) was 50 nM.
Take `COC(=O)NNC(=O)Nc1cccc2c1C(=O)c1c-2n[nH]c1-c1ccc(OC)cc1`: the IC50 amounted to 10 nM in assay [1], 8 nM in assay [2] and 50 nM in assay [3].
As to `COc1ccc(-c2[nH]nc3c2C(=O)c2c(NC(=O)NNC(=O)c4ccc(O)cc4O)cccc2-3)cc1`, the results for the IC50 in assay [1], in assay [2] and in assay [3] were 10 nM, 10 nM and 250 nM, respectively.
For the compound `COc1ccc(-c2[nH]nc3c2C(=O)c2c(NC(=O)NNC(=O)c4ccc(O)cc4)cccc2-3)cc1`, the figures for the IC50 in assay [2] and in assay [3] were 5 nM and 1100 nM, respectively.
For `COc1ccc(-c2[nH]nc3c2C(=O)c2c(NC(=O)NNC(=O)c4ccc(O)c(N)c4)cccc2-3)cc1`, the IC50 came out at 20 nM in assay [1] and 7 nM in assay [2].
With `COc1ccc(-c2[nH]nc3c2C(=O)c2c(NC(=O)NNC(=O)c4ccc(O)c(O)c4)cccc2-3)cc1`, the IC50 is 10 nM in assay [1] and 5 nM in assay [2].
As for `COc1ccc(-c2[nH]nc3c2C(=O)c2c(NC(=O)NNC(=O)c4cccc(N)c4)cccc2-3)cc1`, the IC50 in assay [1] was 10 nM; in assay [2], 7 nM; in assay [3], 80 nM.
For the compound `COc1ccc(-c2[nH]nc3c2C(=O)c2c(NC(=O)NNC(=O)Cc4ccccc4)cccc2-3)cc1`, the IC50 in assay [1] worked out at 30 nM; in assay [2], 20 nM.
Take `COc1ccc(-c2[nH]nc3c2C(=O)c2c(NC(=O)NNC(=O)c4cccnc4)cccc2-3)cc1`: the IC50 in assay [1] was 10 nM; in assay [2], 9 nM; in assay [3], 190 nM.
Consider `COc1ccc(-c2[nH]nc3c2C(=O)c2c(NC(=O)NNC(=O)c4cc(N)cc(N)c4)cccc2-3)cc1`, for which the IC50 in assay [1] is 30 nM; in assay [2] it was 10 nM.
Regarding `COc1ccc(-c2[nH]nc3c2C(=O)c2c(NC(=O)NNC(=O)c4ccc5ccccc5c4)cccc2-3)cc1`, the IC50 in assay [1] was determined as 30 nM; in assay [2], 10 nM; in assay [3], 120 nM.
In the case of `COc1ccc(-c2[nH]nc3c2C(=O)c2c(NC(=O)NNC(=O)Nc4ccccc4)cccc2-3)cc1`, the IC50 in assay [1] is 10 nM; in assay [3], 280 nM.
`COc1ccc(-c2[nH]nc3c2C(=O)c2c(NC(=O)NNC(=O)c4ccncc4)cccc2-3)cc1`: the IC50 in assay [1] was 10 nM; in assay [2], 9 nM; in assay [3], 190 nM.
As for `COc1ccc(C(=O)NNC(=O)Nc2cccc3c2C(=O)c2c(-c4ccc(OC)cc4)n[nH]c2-3)cc1`, the IC50 in assay [1] and in assay [2] was 10 nM in each case.

Values taken from ChEMBL document CHEMBL1138012, “Parallel synthesis of acylsemicarbazide libraries: preparation of potent cyclin dependent kinase (cdk) inhibitors” (Bioorg Med Chem Lett, 2004).
